Data on five compounds can be found in article PMC6050590 (Nature, 2017).

A value given as a limit tells only on which side of the number the result lay.

In one series the test system is H3K9Ac in PC-3 cells. Briefly: High content microscopy of H3K9Ac in PC-3 cells. The conditions noted are these: Homo sapiens, PC-3, 3 h, read-out: EC50, decrease of H3K9Ac.
The target of the next series is GCN5L2 (Homo sapiens, UniProt Q92830). Put plainly: HAT family selectivity, GCN5L2. The conditions noted are these: at 10 µM.
Sequence of GCN5L2 (Q92830 whole entry): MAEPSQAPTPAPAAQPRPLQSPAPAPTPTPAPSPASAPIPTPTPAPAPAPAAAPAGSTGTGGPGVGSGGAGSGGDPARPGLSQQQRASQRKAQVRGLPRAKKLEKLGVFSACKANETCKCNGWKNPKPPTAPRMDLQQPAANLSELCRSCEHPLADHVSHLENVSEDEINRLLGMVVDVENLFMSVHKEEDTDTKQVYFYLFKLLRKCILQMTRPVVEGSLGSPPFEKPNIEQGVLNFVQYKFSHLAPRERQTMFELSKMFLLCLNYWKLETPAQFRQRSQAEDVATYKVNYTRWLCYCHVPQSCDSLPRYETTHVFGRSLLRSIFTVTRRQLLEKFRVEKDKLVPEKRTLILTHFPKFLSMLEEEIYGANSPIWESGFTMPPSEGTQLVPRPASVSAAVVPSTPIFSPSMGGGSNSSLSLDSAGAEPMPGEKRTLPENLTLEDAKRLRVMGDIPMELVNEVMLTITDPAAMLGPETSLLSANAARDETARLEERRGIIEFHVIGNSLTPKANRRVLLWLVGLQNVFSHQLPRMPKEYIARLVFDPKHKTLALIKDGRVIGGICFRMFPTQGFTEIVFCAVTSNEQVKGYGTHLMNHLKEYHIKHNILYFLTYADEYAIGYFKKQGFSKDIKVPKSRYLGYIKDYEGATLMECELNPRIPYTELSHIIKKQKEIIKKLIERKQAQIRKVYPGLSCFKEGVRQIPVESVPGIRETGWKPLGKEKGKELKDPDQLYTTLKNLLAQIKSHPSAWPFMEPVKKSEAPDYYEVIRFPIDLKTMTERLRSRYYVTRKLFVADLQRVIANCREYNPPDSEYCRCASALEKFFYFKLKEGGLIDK
The target of a further series is TIP60 (Homo sapiens, UniProt Q92993). Briefly: HAT family selectivity, TIP60. The note with it: at 10 µM.
Sequence of TIP60 (Q92993 whole entry): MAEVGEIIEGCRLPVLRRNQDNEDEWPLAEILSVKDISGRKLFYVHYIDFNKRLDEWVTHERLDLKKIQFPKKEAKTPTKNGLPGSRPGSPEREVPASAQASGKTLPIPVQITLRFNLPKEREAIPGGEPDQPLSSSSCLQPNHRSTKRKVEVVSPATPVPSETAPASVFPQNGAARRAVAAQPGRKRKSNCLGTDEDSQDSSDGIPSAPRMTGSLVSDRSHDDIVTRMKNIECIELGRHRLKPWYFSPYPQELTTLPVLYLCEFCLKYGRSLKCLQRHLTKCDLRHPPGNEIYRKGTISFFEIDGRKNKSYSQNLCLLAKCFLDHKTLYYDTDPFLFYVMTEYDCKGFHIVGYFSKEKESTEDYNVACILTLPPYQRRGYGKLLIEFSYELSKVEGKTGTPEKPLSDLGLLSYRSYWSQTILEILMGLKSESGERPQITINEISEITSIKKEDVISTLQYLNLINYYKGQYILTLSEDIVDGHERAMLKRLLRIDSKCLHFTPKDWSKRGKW
Series [1] deals with H3K27Ac and AR occupancy at the PSA enhancer, LnCaP-FGC cells. Briefly: ChIP at the PSA enhancer in DHT-stimulated LnCaP-FGC cells. The conditions noted are these: DHT 6 h. The series is classed as cell-based.
Series [2] deals with AR+ prostate cancer cell lines. Briefly: Cell proliferation of prostate cancer cell lines.
The target in another series is serotonin transporter (Homo sapiens, UniProt P31645). Briefly: Non-epigenetic target panel, serotonin transporter binding. The note with it: at 10 µM.
Sequence of serotonin transporter (P31645 whole entry): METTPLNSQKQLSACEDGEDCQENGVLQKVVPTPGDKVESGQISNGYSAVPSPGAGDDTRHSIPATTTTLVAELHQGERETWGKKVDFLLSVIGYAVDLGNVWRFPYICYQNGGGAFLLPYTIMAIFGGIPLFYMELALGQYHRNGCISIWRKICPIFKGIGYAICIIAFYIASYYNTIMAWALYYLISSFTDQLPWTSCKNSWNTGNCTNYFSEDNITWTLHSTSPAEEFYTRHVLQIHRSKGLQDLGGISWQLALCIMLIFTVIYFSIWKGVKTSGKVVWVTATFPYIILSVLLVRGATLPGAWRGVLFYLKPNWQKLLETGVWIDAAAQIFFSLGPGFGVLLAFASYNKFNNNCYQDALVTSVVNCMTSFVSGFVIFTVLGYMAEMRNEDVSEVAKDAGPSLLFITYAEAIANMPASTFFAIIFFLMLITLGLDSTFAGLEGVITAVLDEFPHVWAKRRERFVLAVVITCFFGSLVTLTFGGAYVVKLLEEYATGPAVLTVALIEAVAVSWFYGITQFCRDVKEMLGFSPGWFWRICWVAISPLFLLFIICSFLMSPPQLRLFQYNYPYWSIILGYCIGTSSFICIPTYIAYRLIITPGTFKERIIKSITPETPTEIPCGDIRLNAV
A further series has as its target MYST3 (Homo sapiens, UniProt Q92794). Put plainly: HAT family selectivity, MYST3. The note with it: at 10 µM.
Series [3] deals with T1, p300-BHC (Homo sapiens, UniProt Q09472). Briefly: AlphaLISA-based peptide substrate binding assay.
T1 sequence (Q09472 1049-1809 limits assumed): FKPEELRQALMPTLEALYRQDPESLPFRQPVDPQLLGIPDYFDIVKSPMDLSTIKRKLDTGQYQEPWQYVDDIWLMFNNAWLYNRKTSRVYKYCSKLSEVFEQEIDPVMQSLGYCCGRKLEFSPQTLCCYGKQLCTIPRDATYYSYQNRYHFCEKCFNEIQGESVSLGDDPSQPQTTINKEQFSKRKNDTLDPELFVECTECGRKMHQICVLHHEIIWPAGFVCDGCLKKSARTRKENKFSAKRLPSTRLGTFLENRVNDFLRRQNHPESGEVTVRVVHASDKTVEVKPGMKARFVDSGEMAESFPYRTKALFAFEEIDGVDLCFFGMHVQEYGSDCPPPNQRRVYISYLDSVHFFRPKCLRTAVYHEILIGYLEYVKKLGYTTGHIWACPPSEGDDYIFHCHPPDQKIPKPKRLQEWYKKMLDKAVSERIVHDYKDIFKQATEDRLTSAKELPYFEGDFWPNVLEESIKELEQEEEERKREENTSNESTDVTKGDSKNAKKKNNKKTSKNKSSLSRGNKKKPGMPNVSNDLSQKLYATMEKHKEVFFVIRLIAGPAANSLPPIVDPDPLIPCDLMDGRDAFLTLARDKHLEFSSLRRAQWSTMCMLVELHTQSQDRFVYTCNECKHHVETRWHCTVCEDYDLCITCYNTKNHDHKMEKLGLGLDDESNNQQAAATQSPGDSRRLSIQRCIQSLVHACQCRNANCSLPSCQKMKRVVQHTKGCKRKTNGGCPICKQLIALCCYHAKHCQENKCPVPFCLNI
The target of a further series is dopamine transporter (Homo sapiens, UniProt Q01959). Briefly: Non-epigenetic target panel, dopamine transporter binding. The conditions noted are these: at 10 µM.
Sequence of dopamine transporter (Q01959 whole entry): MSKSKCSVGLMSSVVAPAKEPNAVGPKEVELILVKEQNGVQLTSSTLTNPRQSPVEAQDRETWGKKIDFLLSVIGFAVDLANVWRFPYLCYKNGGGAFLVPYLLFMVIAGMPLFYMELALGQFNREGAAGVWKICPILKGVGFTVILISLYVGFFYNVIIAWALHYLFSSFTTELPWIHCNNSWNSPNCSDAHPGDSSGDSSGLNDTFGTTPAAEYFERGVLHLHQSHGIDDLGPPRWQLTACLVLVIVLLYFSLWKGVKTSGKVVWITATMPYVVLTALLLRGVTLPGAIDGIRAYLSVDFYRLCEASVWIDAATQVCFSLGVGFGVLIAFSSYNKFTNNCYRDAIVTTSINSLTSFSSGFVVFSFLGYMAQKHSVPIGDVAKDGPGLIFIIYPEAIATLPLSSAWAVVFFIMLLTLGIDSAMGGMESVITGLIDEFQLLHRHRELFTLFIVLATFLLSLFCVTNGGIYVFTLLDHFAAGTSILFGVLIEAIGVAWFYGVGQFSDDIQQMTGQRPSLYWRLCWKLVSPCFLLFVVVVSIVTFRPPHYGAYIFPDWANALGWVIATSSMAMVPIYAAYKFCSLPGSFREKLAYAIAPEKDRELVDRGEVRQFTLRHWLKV
In another series the test system is LuCaP-77 CR xenograft. Put plainly: LuCaP-77 CR castration resistant prostate cancer xenograft model. The series is classed as in vivo, SCID male mice. The conditions noted are these: 7 days dosing, 3 h post-dosing.
The next series in a line: Brain exposure. The note with it: in vivo.
The target in another series is MYST4 (Homo sapiens, UniProt Q8WYB5). Briefly: HAT family selectivity, MYST4. The conditions noted are these: at 10 µM.
A further series deals with 22Rv1 cells. Put plainly: Proliferation of androgen depleted 22Rv1 cells. The series is classed as cell-based. The note with it: absence of androgens.
The next series has as its target PCAF (Homo sapiens, UniProt Q92831). Briefly: HAT family selectivity, PCAF. The note with it: at 10 µM.
For series [4], the system named is PSA expression in 22Rv1 cells. Put plainly: qRT-PCR of PSA expression in androgen depleted 22Rv1 cells. The class given is cell-based. The note with it: absence of androgens, 7 h and 24 h. A general note: Real-time PCR tracks product formation cycle by cycle.
In series [5] the test system is c-Myc expression in 22Rv1 cells. Put plainly: c-Myc expression in androgen depleted 22Rv1 cells. The class given is cell-based.
A further series deals with HAT1 (Homo sapiens, UniProt O14929). Put plainly: HAT family selectivity, HAT1. The note with it: at 10 µM.
Sequence of HAT1 (O14929 whole entry): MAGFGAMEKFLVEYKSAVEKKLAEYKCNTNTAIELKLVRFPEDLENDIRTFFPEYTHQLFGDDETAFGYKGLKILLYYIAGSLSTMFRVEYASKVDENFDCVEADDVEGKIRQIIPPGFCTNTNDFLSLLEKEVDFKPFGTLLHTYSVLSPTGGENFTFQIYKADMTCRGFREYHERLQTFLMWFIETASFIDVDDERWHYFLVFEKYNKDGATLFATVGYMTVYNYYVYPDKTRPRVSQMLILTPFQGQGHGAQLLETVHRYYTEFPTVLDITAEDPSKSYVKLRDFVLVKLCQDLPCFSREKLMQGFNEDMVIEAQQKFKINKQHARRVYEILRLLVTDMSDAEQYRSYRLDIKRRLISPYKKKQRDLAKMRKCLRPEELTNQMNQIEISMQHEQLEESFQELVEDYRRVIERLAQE
Series [6] deals with PSA expression in LnCaP-FGC cells. Briefly: qRT-PCR of DHT-stimulated PSA expression in LnCaP-FGC cells. The series is classed as cell-based. The conditions noted are these: 7 h and 24 h.
Series [7] concerns DHT responsive genes in 22Rv1 cells. The series is classed as cell-based. The note with it: androgen depleted 22Rv1 cells.
A further series has as its system H3K27Ac in PC-3 cells. Put plainly: High content microscopy of H3K27Ac in PC-3 cells. The series is classed as cell-based.
Series [8] deals with p300-BHC (bromodomain-HAT-C/H3) domain (Homo sapiens, UniProt Q09472). The note with it: toward p300 and CBP.
Sequence of p300-BHC (bromodomain-HAT-C/H3) domain (Q09472 1049-1809 limits assumed): as the sequence (Q09472 1049-1809 limits assumed) above
The next series concerns the target p300-HAT (Homo sapiens, UniProt Q09472). Briefly: Surface plasmon resonance binding to p300-HAT. The conditions noted are these: SPR. A general note: In SPR one partner is held on a chip, and binding of the other changes the refractive index at the surface.
The target of series [9] is T1, p300-BHC. Put plainly: Thermal shift assay with p300-BHC.

A word on the EC50: it is the concentration at which the effect is half-maximal.

Sequence of p300-HAT (Q09472 1287-1663 limits assumed): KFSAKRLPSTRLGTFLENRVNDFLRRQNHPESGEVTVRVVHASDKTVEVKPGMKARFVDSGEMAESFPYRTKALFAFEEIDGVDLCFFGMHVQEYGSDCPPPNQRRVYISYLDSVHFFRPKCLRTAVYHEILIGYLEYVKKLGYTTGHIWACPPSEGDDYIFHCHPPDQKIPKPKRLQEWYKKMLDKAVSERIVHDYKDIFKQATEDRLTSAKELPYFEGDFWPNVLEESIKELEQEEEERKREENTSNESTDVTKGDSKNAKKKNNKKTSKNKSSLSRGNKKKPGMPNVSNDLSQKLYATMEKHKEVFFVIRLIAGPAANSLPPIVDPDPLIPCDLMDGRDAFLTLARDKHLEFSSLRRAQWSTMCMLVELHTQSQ
Sequence of PCAF (Q92831 whole entry): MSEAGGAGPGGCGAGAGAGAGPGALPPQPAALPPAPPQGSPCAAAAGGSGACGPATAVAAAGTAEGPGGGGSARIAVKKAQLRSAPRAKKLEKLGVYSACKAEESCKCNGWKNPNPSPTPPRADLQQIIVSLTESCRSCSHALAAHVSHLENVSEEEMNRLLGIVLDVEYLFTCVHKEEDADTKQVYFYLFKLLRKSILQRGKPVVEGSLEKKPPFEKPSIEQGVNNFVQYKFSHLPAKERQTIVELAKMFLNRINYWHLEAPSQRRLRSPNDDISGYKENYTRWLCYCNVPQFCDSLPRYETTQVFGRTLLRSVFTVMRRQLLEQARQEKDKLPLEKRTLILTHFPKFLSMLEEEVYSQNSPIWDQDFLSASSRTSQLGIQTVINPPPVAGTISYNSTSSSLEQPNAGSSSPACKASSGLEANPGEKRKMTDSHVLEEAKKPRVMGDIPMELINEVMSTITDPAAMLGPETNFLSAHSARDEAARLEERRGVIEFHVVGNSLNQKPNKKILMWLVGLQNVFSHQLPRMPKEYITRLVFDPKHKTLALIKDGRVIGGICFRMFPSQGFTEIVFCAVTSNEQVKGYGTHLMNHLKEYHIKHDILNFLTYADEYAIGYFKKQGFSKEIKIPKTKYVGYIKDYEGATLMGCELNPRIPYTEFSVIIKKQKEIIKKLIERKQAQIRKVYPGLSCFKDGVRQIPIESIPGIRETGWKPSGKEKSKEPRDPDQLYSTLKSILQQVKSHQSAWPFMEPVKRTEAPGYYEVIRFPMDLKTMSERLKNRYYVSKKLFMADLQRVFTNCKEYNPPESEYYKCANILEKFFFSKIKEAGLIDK

For `CNC(=O)Nc1ccc2c(c1)CC[C@@]21OC(=O)N(CC(=O)N(Cc2ccc(F)cc2)[C@@H](C)C(F)(F)F)C1=O` [Compound A-485], the EC50 in the series on H3K9Ac in PC-3 cells is above 10 µM. The “inhibition of GCN5L2 activity” value against GCN5L2 is recorded as “did not inhibit”. For the same compound, at TIP60, the “inhibition of TIP60 activity” value is listed as “did not inhibit”. Further, the “H3K27Ac at the PSA enhancer” value in series [1] is “reduced H3K27Ac binding”. Further, the figures for the inhibition of proliferation entry (in series [2]; with 22Rv1 cells) were “potent inhibition of proliferation” and “inhibited proliferation”, respectively. Besides, on serotonin transporter, the “binding to serotonin transporter” value is listed as above 90%. Also, the “inhibition of MYST3 activity” value on MYST3 was “did not inhibit”. The “competition with peptide substrate binding” value at p300-BHC [3] is “not competitive with the peptide substrate”. At dopamine transporter, the “binding to dopamine transporter” value is reported as above 90%. Besides, the “tumor mRNA levels of SLC45A3 and c-Myc” value in the series with LuCaP-77 CR xenograft is recorded as “decrease”. The brain exposure result in “Brain exposure” is on record as “does not achieve significant brain exposure”. Also, the “inhibition of MYST4 activity” value on MYST4 is given as “did not inhibit”. Further, the “inhibition of PCAF activity” value at PCAF is reported as “did not inhibit”. The PSA expression entry in series [4] was “decreased PSA expression”. Moreover, the c-Myc expression result in series [5] is “robustly decreased”. Also, the “inhibition of HAT1 activity” value against HAT1 was “did not inhibit”. The “DHT-stimulated PSA expression” value in series [6] is “attenuated DHT-stimulated PSA expression more potently than the AR antagonist enzalutamide”.
As for `CNC(=O)c1ccc(N2C(=S)N(c3ccc(C#N)c(C(F)(F)F)c3)C(=O)C2(C)C)cc1F` [enzalutamide, reference compound], the “effect on DHT responsive genes, in words” value in [7] was “inactive”. For the same compound, in series [1], the “AR occupancy at the PSA enhancer” value was “decreased AR occupancy” and the “H3K27Ac at the PSA enhancer” value was “reduced H3K27Ac binding”. Besides, the inhibition of proliferation entry with 22Rv1 cells is “inactive”. Besides, the PSA expression entry in [4] is “inactive”. The c-Myc expression entry in series [5] is on record as “no effect”.
As to `CC1=NN(c2ccc(C(=O)O)cc2)C(=O)/C1=C\c1ccc(-c2cc(C)c(C)cc2[N+](=O)[O-])o1` [Compound C646, reference compound], in the series with H3K27Ac in PC-3 cells, the “effect on H3K27Ac, in words” value was “only modest inhibition”.
With `CNC(=O)Nc1ccc2c(c1)[C@@]1(CC2)OC(=O)N(CC(=O)N(Cc2ccc(F)cc2)[C@@H](C)C(F)(F)F)C1=O` [Compound A-486], the “effect on H3K27Ac, in words” value with H3K27Ac in PC-3 cells is “inactive”. Besides, the inhibition of proliferation entry with 22Rv1 cells was “inactive”. In addition, the PSA expression entry in [4] was “inactive”. In series [8], the “fold less potent than A-485” value was ~ 1000 fold. Also, the “fold weaker binding than A-485” value on p300-HAT is ~ 1,000 fold.
Turning to `CC(=O)N[C@@H](CCCCNC(=O)CSCCNC(=O)CCNC(=O)[C@H](O)C(C)(C)COP(=O)(O)OP(=O)(O)OC[C@H]1O[C@@H](n2cnc3c(N)ncnc32)[C@H](O)[C@@H]1OP(=O)(O)O)C(N)=O` [Lys-CoA], the “increase of thermostability of p300-BHC” value at p300-BHC [9] worked out at 5.8 °C.
